Measurements: article PMC10819243 (Pharmaceutics, 2024)
Where two headings read alike, the source gives them in different places.

Columns and labels:
HeLa = assay: MTT assay, HeLa; type: cell-based; details: for IC50: Homo sapiens, MTT assay, HeLa cervix carcinoma, (±s) standard deviation; for Selectivity Index HeLa: IC50 for normal cell line (HDF)/IC50 for HeLa
KB = assay: MTT assay, KB; type: cell-based; details: for IC50: Homo sapiens, MTT assay, KB nasopharynx carcinoma, (±s) standard deviation; for Selectivity Index KB: IC50 for normal cell line (HDF)/IC50 for KB
MCF-7 = assay: MTT assay, MCF-7; type: cell-based; details: for IC50: Homo sapiens, MCF7, MTT assay, MCF-7 breast carcinoma, (±s) standard deviation; for Selectivity Index MCF-7: IC50 for normal cell line (HDF)/IC50 for MCF-7
A-549 = assay: MTT assay, A-549; type: cell-based; details: for IC50: Homo sapiens, A549, MTT assay, A-549 lung carcinoma, (±s) standard deviation; for Selectivity Index A-549: IC50 for normal cell line (HDF)/IC50 for A-549
[1] = tested on: HDF (normal fibroblast cell line); assay: MTT assay, HDF; type: cell-based, human; details: MTT assay, HDF normal fibroblast cell line, (±s) standard deviation
[2] = tested on: HeLa, KB, MCF-7, A-549 and HDF cell lines; assay: MTT assay, statements over several tested cell lines; type: cell-based; details: for times less active than mother OA (1): over the tested cell lines
[3] = summary over the tested cell lines, read-out: IC50 values for the tested cell lines (range or summary)
[4] = one approximate value or range for the four cancer cell lines, apart from HDF, read-out: IC50 for HeLa, KB, MCF-7, and A-549 cancer cell lines
[5] = ratio of IC50 values vs oleanolic acid (1)

| SMILES | IC50 (HeLa) [µM] | Selectivity Index HeLa (HeLa) | IC50 (KB) [µM] | Selectivity Index KB (KB) | IC50 (MCF-7) [µM] | Selectivity Index MCF-7 (MCF-7) | IC50 (A-549) [µM] | Selectivity Index A-549 (A-549) | IC50 ([1]; Homo sapiens, Fibroblast) [µM] | IC50 [2, 3] [µM] | IC50 [1] [µM] | IC50 [2, 4] [µM] | fold as active as OA (1), KB (KB; [5]) | fold as active as OA (1), MCF-7 (MCF-7; [5]) | times less active than mother OA (1) [2] |
| --- | --- | --- | --- | --- | --- | --- | --- | --- | --- | --- | --- | --- | --- | --- | --- |
| COC(=O)[C@]12CCC(C)(C)CC1C1=CCC3[C@@]4(C)CC/C(=N\OC(=O)c5ccc([N+](=O)[O-])cc5)C(C)(C)C4CC[C@@]3(C)[C@]1(C)CC2 (some centres unmarked) [Compound 5f, 3-(4′-Nitro)benzoxyiminoolean-12-en-28-oic acid methyl ester] | 62 | 2.13 | 60.7 | 2.18 | 61.4 | 2.15 | 69.9 | 1.89 | 132 | 60.7 to 132 |  |  |  |  |  |
| CCC(=O)O/N=C1\CC[C@@]2(C)C(CC[C@]3(C)C2C(=O)C=C2C4CC(C)(C)CC[C@]4(C(=O)OC)CC[C@]23C)C1(C)C (some centres unmarked) [Compound 6c, 3-Propionoxyimino-11-oxoolean-12-en-28-oic acid methyl ester] | 24 | 2.04 | 24.8 | 1.97 | 23 | 2.13 | 24.2 | 2.03 | ~50 |  | 49 | ~24 |  |  |  |
| CC1(C)CC[C@]2(C(=O)N3CCOCC3)CC[C@]3(C)C(=CCC4[C@@]5(C)CC/C(=N\OC(=O)c6ccc([N+](=O)[O-])cc6)C(C)(C)C5CC[C@]43C)C2C1 (some centres unmarked) [Compound 7f, 3-(4′-Nitro)benzoxyiminoolean-12-en-28-oic acid morpholide] | 60 | 1.42 | 61.5 | 1.38 | 57.2 | 1.49 | 62.9 | 1.35 | 85.1 | 40 to 66 |  |  |  |  |  |
| COC(=O)[C@]12CCC(C)(C)CC1C1=CCC3[C@@]4(C)CC/C(=N\OC(C)=O)C(C)(C)C4CC[C@@]3(C)[C@]1(C)CC2 (some centres unmarked) [Compound 5a, 3-Acetoxyiminoolean-12-en-28-oic acid methyl ester] | 11.1 | 2.62 | 11.4 | 2.55 | 10.5 | 2.76 | 10.6 | 2.74 | 29 |  |  |  | about 1.3 fold | about 1.3 fold |  |
| CC1(C)CC[C@]2(C(=O)N3CCOCC3)CC[C@]3(C)C(=CCC4[C@@]5(C)CC/C(=N\OC(=O)CCl)C(C)(C)C5CC[C@]43C)C2C1 (some centres unmarked) [Compound 7b, 3-Chloroacetoxyiminoolean12-en-28-oic acid morpholide] | 19.2 | 2.03 | 19.8 | 1.97 | 15.6 | 2.50 | 19.3 | 2.02 | 39.1 | 15 to 40 |  |  |  |  |  |
| CC1(C)CC[C@]2(C(=O)O)CC[C@]3(C)C(=CC[C@@H]4[C@@]5(C)CC[C@H](O)C(C)(C)[C@@H]5CC[C@]43C)[C@@H]2C1 [Compound 1, oleanolic acid, reference compound] |  |  |  |  |  |  |  |  | 17.9 |  |  |  |  |  |  |
| COC(=O)[C@]12CCC(C)(C)CC1C1=CC(=O)C3[C@@]4(C)CC/C(=N\OC(=O)c5cccc([N+](=O)[O-])c5)C(C)(C)C4CC[C@@]3(C)[C@]1(C)CC2 (some centres unmarked) [Compound 6e, 3-(3′-Nitro)benzoxyimino-11-oxoolean-12-en-28-oic acid methyl ester] | 71.2 | 1.36 | 70 | 1.39 | 75 | 1.29 | 74 | 1.31 | ~97 |  | 97 | 70 to 74 |  |  |  |
| COC(=O)[C@]12CCC(C)(C)CC1C1=CC(=O)C3[C@@]4(C)CC/C(=N\OC(=O)CCl)C(C)(C)C4CC[C@@]3(C)[C@]1(C)CC2 (some centres unmarked) [Compound 6b, 3-Chloroacetoxyimino-11-oxoolean12-en-28-oic acid methyl ester] | 61 | 1.44 | 61 | 1.44 | 64.1 | 1.37 | 61.8 | 1.42 | 88 |  |  | 61 to 64 |  |  |  |
| COC(=O)[C@]12CCC(C)(C)CC1C1=CC(=O)C3[C@@]4(C)CC/C(=N\OC(=O)c5ccccc5)C(C)(C)C4CC[C@@]3(C)[C@]1(C)CC2 (some centres unmarked) [Compound 6d, 3-Benzoxyimino-11-oxoolean-12-en-28-oic acid methyl ester] | 28.4 | 1.48 | 27.2 | 1.54 | 27.5 | 1.53 | 27.8 | 1.51 | ~42 |  | 42 | ~27 |  |  |  |
| CC(=O)O/N=C1\CC[C@@]2(C)C(CC[C@]3(C)C2CC=C2C4CC(C)(C)CC[C@]4(C(=O)N4CCOCC4)CC[C@]23C)C1(C)C (some centres unmarked) [Compound 7a, 3-Acetoxyiminoolean-12-en-28-oic acid morpholide] | 82.2 | 1.41 | 81.5 | 1.42 | 81 | 1.43 | 84.9 | 1.37 | 116 | ≥ 80 |  |  |  |  | about 8 fold |
| CCC(=O)O/N=C1\CC[C@@]2(C)C(CC[C@]3(C)C2CC=C2C4CC(C)(C)CC[C@]4(C(=O)OC)CC[C@]23C)C1(C)C (some centres unmarked) [Compound 5c, 3-Propionoxyiminoolean-12-en-28-oic acid methyl ester] | 38.1 | 1.05 | 38.8 | 1.03 | 38.1 | 1.05 | 36.2 | 1.10 | 39.9 |  |  |  |  |  | 2.2–4.1 fold |
| COC(=O)[C@]12CCC(C)(C)CC1C1=CCC3[C@@]4(C)CC/C(=N\OC(=O)CCl)C(C)(C)C4CC[C@@]3(C)[C@]1(C)CC2 (some centres unmarked) [Compound 5b, 3-Chloroacetoxyiminoolean-12-en-28-oic acid methyl ester] | 19.8 | 1.87 | 18.4 | 2.01 | 18 | 2.05 | 19.8 | 1.87 | 37 |  |  |  |  |  | 1.7–2.2 fold |
| COC(=O)C12CCC(C)(C)CC1C1=CCC3C4(C)CCC(=NO)C(C)(C)C4CCC3(C)C1(C)CC2 (centres unmarked) [Compound 2, methyl oleanonate oxime] |  | 1.60 |  | 1.70 |  | 1.38 | 13 | 1.62 | 21.1 |  |  |  |  |  |  |
| COC(=O)[C@]12CCC(C)(C)CC1C1=CC(=O)C3[C@@]4(C)CC/C(=N\OC(=O)c5ccc([N+](=O)[O-])cc5)C(C)(C)C4CC[C@@]3(C)[C@]1(C)CC2 (some centres unmarked) [Compound 6f, 3-(4′-Nitro)benzoxyimino-11-oxoolean-12-en-28-oic acid methyl ester] | 28.3 | 1.31 | 26.3 | 1.41 | 26 | 1.43 | 28.1 | 1.32 | 37.2 |  |  |  |  |  |  |
